Laboratory results as given in PubChem BioAssay AID330 (DTP/NCI, 2004).
Inconclusive results and toxic doses are left out. Rule for the calls: active = survival T/C of 150% or more; inactive = T/C below 125% in these data.

Tested on: P388 leukemia ip, CD2F1 mice, survival T/C
Test: NCI In Vivo Anticancer Drug Screen. Data for tumor model P388 Leukemia (intraperitoneal) in CD2F1 (CDF1) mice
Settings: endpoint: median survival time, higher = longer survival
Method in brief: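 Mice carrying the transplanted tumor received test compound or vehicle. Survival was recorded in each group, and the value is the treated-group measurement divided by that of the vehicle-treated control group.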

[1] = dose: 50.0 mg/kg/injection, schedule: Q01DX009 (ip), vehicle: saline with Tween-80
[2] = dose: 100.0 mg/kg/injection, schedule: Q01DX009 (ip), vehicle: saline with Tween-80
[3] = dose: 60.0 mg/kg/injection, schedule: Q01DX005 (ip), vehicle: saline with Tween-80
[4] = dose: 120.0 mg/kg/injection, schedule: Q01DX005 (ip), vehicle: saline with Tween-80
[5] = dose: 12.5 mg/kg/injection, schedule: Q01DX009 (ip), vehicle: Klucel (hydroxypropylcellulose) (HPC)
[6] = dose: 25.0 mg/kg/injection, schedule: Q01DX009 (ip), vehicle: Klucel (hydroxypropylcellulose) (HPC)
[7] = dose: 50.0 mg/kg/injection, schedule: Q01DX009 (ip), vehicle: Klucel (hydroxypropylcellulose) (HPC)
[8] = dose: 100.0 mg/kg/injection, schedule: Q01DX009 (ip), vehicle: Klucel (hydroxypropylcellulose) (HPC)
[9] = dose: 50.0 mg/kg/injection, schedule: Q01DX005 (ip), vehicle: saline with Tween-80
[10] = dose: 100.0 mg/kg/injection, schedule: Q01DX005 (ip), vehicle: saline with Tween-80

Measured: T/C

O=S1(=O)OC2(c3ccccc31)c1cc(Br)c(O)c(O)c1Oc1c2cc(Br)c(O)c1O
inactive: dose: 12.5 mg/kg/injection, schedule: Q01DX009 (ip), vehicle: saline 105 % of control | dose: 25.0 mg/kg/injection, schedule: Q01DX009 (ip), vehicle: saline 103 % of control | dose: 50.0 mg/kg/injection, schedule: Q01DX009 (ip), vehicle: saline 88 % of control

CCC(C)NS(=O)(=O)c1ccccc1C(=O)OC (centres undefined)
inactive: dose: 50.0 mg/kg/injection, schedule: Q01DX005 (ip), vehicle: Klucel (hydroxypropylcellulose) (HPC) 99 % of control | dose: 100.0 mg/kg/injection, schedule: Q01DX005 (ip), vehicle: Klucel (hydroxypropylcellulose) (HPC) 99 % of control | dose: 200.0 mg/kg/injection, schedule: Q01DX005 (ip), vehicle: Klucel (hydroxypropylcellulose) (HPC) 97 % of control

Nc1nc2nc(CBr)c(CBr)nc2c(=O)[nH]1
inactive: dose: 25.0 mg/kg/injection, schedule: Q01DX009 (ip), vehicle: saline with Tween-80 115 % of control | [1] 118 % of control | [2] 122 % of control | dose: 200.0 mg/kg/injection, schedule: Q01DX009 (ip), vehicle: saline with Tween-80 100 % of control

CCN(CC)C(=O)c1c(C(=O)OC)c(C)n(NC(=O)c2cccc(C)c2)c1C
inactive: [3] 90 % of control | [4] 87 % of control

c1ccc2c(NCCCN3CCN(CCCNc4c5ccccc5nc5ccccc45)CC3)c3ccccc3nc2c1
inactive: dose: 0.93 mg/kg/injection, schedule: Q01DX005 (ip), vehicle: Klucel (hydroxypropylcellulose) (HPC) 110 % of control | dose: 1.88 mg/kg/injection, schedule: Q01DX005 (ip), vehicle: Klucel (hydroxypropylcellulose) (HPC) 104 % of control

Cc1nn(C)c(=O)c(N)c1-c1cc(-c2ccc(Cl)cc2)n[nH]1
inactive: [3] 89 % of control | [4] 88 % of control

C=C1C(=O)OC2/C=C(\C)CC/C=C(\C)C(OC(C)=O)C(OC(=O)C3(C)OC3C)C12O (centres undefined)
inactive: [5] 105 % of control | [6] 115 % of control | [7] 115 % of control | [8] 94 % of control

CC(C)(C)OC(=O)NC(COCc1ccccc1)C(=O)ON1C(=O)CCC1=O (centres undefined)
inactive: [9] 114 % of control | [10] 103 % of control

CN(C)CCCNc1ccc(NCCCN(C)C)c2c1C(=O)c1ccccc1C2=O
inactive: dose: 3.75 mg/kg/injection, schedule: Q01DX009 (ip), vehicle: saline 100 % of control | dose: 7.5 mg/kg/injection, schedule: Q01DX009 (ip), vehicle: saline 102 % of control | dose: 12.5 mg/kg/injection, schedule: Q01DX009 (ip), vehicle: water 104 % of control | dose: 15.0 mg/kg/injection, schedule: Q01DX009 (ip), vehicle: saline 102 % of control | dose: 25.0 mg/kg/injection, schedule: Q01DX009 (ip), vehicle: water 103 % of control | dose: 30.0 mg/kg/injection, schedule: Q01DX009 (ip), vehicle: saline 100 % of control | dose: 60.0 mg/kg/injection, schedule: Q01DX009 (ip), vehicle: saline 100 % of control

CC(C)(C=O)COC1OCN(C(C)(C)C)CC1(C)C (centres undefined)
inactive: [1] 104 % of control | [2] 122 % of control

C1=NC(c2ccccn2)=NNC(c2ccccn2)=C1c1ccccc1
inactive: [5] 97 % of control | [6] 98 % of control | [7] 93 % of control | [8] 96 % of control | dose: 200.0 mg/kg/injection, schedule: Q01DX009 (ip), vehicle: Klucel (hydroxypropylcellulose) (HPC) 93 % of control

CSC(=S)n1nc(-c2cccs2)c(N=Nc2ccccc2)c1C(F)(F)F
inactive: dose: 7.5 mg/kg/injection, schedule: Q01DX005 (ip), vehicle: saline with Tween-80 102 % of control | dose: 15.0 mg/kg/injection, schedule: Q01DX005 (ip), vehicle: saline with Tween-80 112 % of control | dose: 30.0 mg/kg/injection, schedule: Q01DX005 (ip), vehicle: saline with Tween-80 112 % of control

O[C@H]1CCC[C@H]1NCc1ccnc2cc(Cl)ccc12
inactive: [9] 100 % of control | [10] 89 % of control | dose: 200.0 mg/kg/injection, schedule: Q01DX005 (ip), vehicle: saline with Tween-80 91 % of control

CCOc1c(N=Nc2ccc(O)cc2)c(C)nn1C(N)=S
inactive: dose: 15.0 mg/kg/injection, schedule: Q01DX005 (ip), vehicle: Klucel + Tween-80 99 % of control | dose: 30.0 mg/kg/injection, schedule: Q01DX005 (ip), vehicle: Klucel + Tween-80 101 % of control
